In patent US20240150339A1, “Compounds and Their Use as PDE4 Activators” (Mironid Limited, priority 2021, published 2024):
Structures can show the parent of a compound that is named as a salt.

How the values were obtained:
[1] = test system: m-IMCD3 cells; assay: Inhibition of PGE2-stimulated in vitro cyst formation in 3D culture of m-IMCD3 cells; format: cell-based, mouse; conditions: Mus musculus, mIMCD3, 144 h; 10 μM test compound; mean cyst area (%) compared to 100% for (DMSO + PGE2) and 0% for DMSO control; 100 nM PGE2; 6 days; read-out: % Cyst area after incubation with 10 μM test compound
In short: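 Mouse m-IMCD3 cells grown in 3D collagen I/Matrigel gels. From 18-24 h after plating, compound (0.1% DMSO) plus 100 nM PGE2 were added and replenished at 2-3 days. After 6 days, imaging gave mean cyst area, scaled to 100% for DMSO+PGE2 and 0% for DMSO alone.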

[2] = test system: m-IMCD3 cell culture; assay: Reduction of cAMP levels in m-IMCD3 cell culture media (cAMP ELISA); format: cell-based, mouse; conditions: compared to 100% for (DMSO + PGE2)
Description: Experiment 4a: Reduction of cAMP Levels in m-IMCD3 Cell Culture Treated with PDE4 Long Form Activators Activation of intracellular PDE4 long forms leads to a reduction of both intracellular cAMP and externalised cAMP (Omar et al., PNAS 116: 13320-13329, 2019). This reduction may be measured in the cell culture media supernatant of 3D cystic cell cultures, such as in the m-IMCD3 cell cyst suppression assay described in Experiment 4.
Following the completion of the m-IMCD3 cell cyst suppression assay, the cAMP levels in the assay media from individual assay wells was measured using a cAMP ELISA kit (Enzo Life Sciences) according to the manufacturer's instructions.
Treatment with PDE4 long form activators reduced cAMP levels in PGE2-stimulated m-IMCD3 cell culture.

[3] = target: T1, PDE4D5 (Homo sapiens, UniProt Q08499); assay: PDE assay, activation of full-length human PDE4D5 long form ([3H]cAMP radio-assay); format: biochemical; conditions: 30 μM test compound; mean % increase in counts over basal activity
T1 construct: Using Full-Length Human PDE4 Isoforms: Long Forms PDE4D5, PDE4C3, PDE4B1 and Short Form PDE4B2; made in house; cytosol fraction of the cell lysate, not purified
In short: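 Cytosol (100,000 g) from HEK293 cells overexpressing full-length human PDE4 was preincubated with compound for 15 min at room temperature in 10 mM Tris/5 mM MgCl2. Reaction ran with 1 μM [3H]cAMP for 10 min at 30° C, then snake venom conversion, Dowex separation and scintillation counting; activity reported as % increase.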

[4] = target: T2, PDE4B2 (Homo sapiens, UniProt Q07343); assay: PDE assay, activity of full-length human PDE4B2 short form ([3H]cAMP radio-assay); format: biochemical; conditions: 30 μM test compound; mean % increase in counts over basal activity
T2 construct: the full length human PDE4B2 short isoform; made in house; cytosol fraction of the lysate by analogy to PDE4D5
Description: Experiment 1: Measurement of Modulation of Enzyme Activity by PDE4 Long Form Activators of the Present Invention Using Full-Length Human PDE4 Isoforms: Long Forms PDE4D5, PDE4C3, PDE4B1 and Short Form PDE4B2
(Marchmont, R. J. and Houslay, M. D. Biochem. J. 187: 381-92, 1980)
For transient transfection of exogenous PDE4 long isoforms, HEK 293 cells were transfected with pcDNA3.1 or pDEST™ PDE4 expression vectors using Lipofectamine LTX/Plus reagent (Invitrogen) as outlined by the manufacturer.
Where stable cell lines were generated the clonal isolates were expanded to obtain cell lines that stably expressed the full-length human PDE4 long isoforms and the full length human PDE4B2 short isoform. These were called the HEK-PDE4D5, HEK-PDE4B1 and HEK-PDE4B2 cell lines, respectively.
HEK-PDE4D5 cells were seeded out in 100 mm plates and incubated at 37° C. in an atmosphere of 5% CO2, 95% air. Cell lysates were prepared using KHEM buffer [50 mM KCl, 10 mM EGTA, 50 mM HEPES (pH 7.2), 1.92 mM MgCl2].
To prepare the cell lysates, the 100 mm plates containing the cells were placed on ice and washed with ice-cold PBS (phosphate buffered saline, pH 7.4). KHEM buffer (500 μl) was added to the cells. Cells were then scraped off the plate and triturated using a needle (BD Microlance™ 0.8, 40 mm). The lysed cells were then centrifuged at 2000 rpm for 10 minutes to remove cell debris and the supernatant (cell lysate containing recombinant PDE4D5) was transferred to a fresh tube and kept on ice.
The cell lysate containing recombinant PDE4D5 was transferred into a centrifuge tube and placed into an ultracentrifuge (BECKMAN COULTER) and spun at high speed (100,000 g) for 30 minutes at 4° C. The cytosol fraction was then collected and its protein amount determined using a BCA protein assay.
PDE assays were performed in thin walled V-bottomed 96-well plates. The assays were performed at a final concentration of 10 mM Tris/5 mM MgCl2 μlus PDE4D5 cell lysate cytosol fraction, containing over-expressed PDE4D5, with and without test compound. The lysate/compound mix were incubated together for 15 min at room temperature on an orbital shaker prior to addition of [^3H] cAMP (final concentration 1 μM [^3H] cAMP; Perkin Elmer) to a final volume of 50 μl per reaction. The reactions were then incubated for 10 minutes at 30° C., terminated by heating for 2 min at 95° C. and allowed to cool. Snake venom (12.5 μl of 1 mg/ml; Crotalus atrox, Sigma) was then added and the plates were agitated and incubated for a further 15 minutes at 30° C. Dowex ion exchange resin (Sigma, chloride form, 200-400 mesh; 200 μl; prepared as a 1:1 Dowex: water stock, thoroughly re-suspended and diluted 2:1 with ethanol) was then added to each well and the plates incubated for 15 min at room temperature on an orbital shaker ensuring sufficient agitation for resin suspension (550 RPM). The reaction mixture was then transferred to a 96 well filter plate (Millipore; […] pore size) and filtered into a receiving 96-well plate to remove the dowex suspension. 30 μL of the filtered solution was then transferred to the wells of an Opti-plate (Perkin Elmer) 96 well assay plate and 120 μl of Microscint 40 scintillation fluid was added. The plate was then placed on an orbital shaker for 10 min at high speed (900 RPM) to mix the sample with scintillation fluid prior to quantitation using a plate based scintillation counter (Top-Count).
The % increase in counts in the presence of test compound at a particular concentration indicates the % increase in enzyme activity at that concentration.

[5] = test system: MDCK cells; assay: Inhibition of PGE2-stimulated in vitro cyst formation in 3D culture of MDCK cells; format: cell-based; conditions: total cyst area (%) compared to 100% for (DMSO + PGE2) and 0% for DMSO control, 300 nM PGE2
Experimental: HEK 293 and MDCK cells (Public Health England, Cell Culture Collections) were maintained in Dulbecco's Modified Eagle's Medium (DMEM) supplemented with 10% (v/v) fetal bovine serum (FBS) (Seralab), 2 mM L-glutamine and 100 U/ml penicillin streptomycin cocktail (ThermoFisher); termed complete media. Clonal HEK 293 cell lines were maintained in complete media supplemented with 0.6 mg/mL G418 (Enzo Life Sciences). Mouse inner medullary collecting duct (m-IMCD3) cells [American Type Culture Collection (ATCC)] were maintained in media consisting of DMEM/Hams F-12 50/50 Mix (DMEM F12; Corning) supplemented with penicillin streptomycin cocktail (100 U/ml) and FBS (10% v/v) (DMEM F12-10% FBS).
In this study, the well-established three-dimensional (3D) MDCK cell model is used to investigate the effects of PDE4 long form activators on the formation of kidney cysts and evaluate their potential in the treatment of polycystic kidney diseases. 3D cysts are generated based on the method of Mao et al. (Mao, Z., Streets, A. J., Ong, A. C. M. Am. J. Physiol. Renal Physiol. 300 (6): F1375-F1384, 2011), with some modifications.
The assay is conducted in the wells of a 96-well plate culture dish using a total volume of 130 μl of collagen suspension in growth media for each matrix plug per individual well. Rat Collagen I (Fisher Scientific) is prepared on ice by neutralising with 1M NaOH and diluting with a 2×volume of DMEM-2% FBS. 30 μl of collagen/Media mix is added into the well of a 96 well plate and the collagen is set to a gel by incubating at 37° C. for at least 15 minutes. A second layer of 100 μl collagen/Matrigel suspension containing MDCK cells (1.0×10^4 MDCK cells per well) is then layered over the first layer and the collagen/cell mix again set to a gel by incubating at 37° C. 100 μl DMEM growth media is added and cells are incubated at 37° C. for 24 hours. 24 hours after cell seeding, DMEM-2% FBS is added along with the test compound indicated in the presence of 300 nM prostaglandin E2 (PGE2) (Sigma Aldrich) in quadruplicate wells per condition. Media, together with the test compound and PGE2 are replenished every 3 days for 10-15 days.
After 10-15 days of culture z stack images of the wells are captured using the Nikon Eclipse Ti2-E microscope. Nikon General Analysis software is used to measure the following parameters in each well: the mean cyst area, the number of cysts, and the total cyst area.
PDE4 long form activators inhibited in vitro cyst formation in MDCK cells. Data are shown in Table 6 as total cyst area (%), compared to 100% for (DMSO+PGE2) and 0% for DMSO control.

T2 sequence (Q07343 1-564 isoform Q07343-2): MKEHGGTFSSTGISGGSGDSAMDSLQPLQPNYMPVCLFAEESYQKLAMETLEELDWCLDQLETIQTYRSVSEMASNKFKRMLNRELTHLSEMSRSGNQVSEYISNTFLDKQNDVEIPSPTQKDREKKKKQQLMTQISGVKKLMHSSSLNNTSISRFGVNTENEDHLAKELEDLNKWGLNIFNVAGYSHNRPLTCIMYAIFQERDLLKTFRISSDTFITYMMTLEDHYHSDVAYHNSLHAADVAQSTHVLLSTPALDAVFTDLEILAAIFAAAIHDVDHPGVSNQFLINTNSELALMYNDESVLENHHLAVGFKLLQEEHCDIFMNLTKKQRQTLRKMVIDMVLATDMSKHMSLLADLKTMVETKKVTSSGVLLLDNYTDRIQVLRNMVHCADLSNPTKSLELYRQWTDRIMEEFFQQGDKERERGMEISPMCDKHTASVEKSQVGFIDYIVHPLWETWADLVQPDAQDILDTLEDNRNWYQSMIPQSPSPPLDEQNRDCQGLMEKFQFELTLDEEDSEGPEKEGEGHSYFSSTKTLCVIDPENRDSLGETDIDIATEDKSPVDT
T1 sequence (Q08499 1-745 isoform Q08499-6): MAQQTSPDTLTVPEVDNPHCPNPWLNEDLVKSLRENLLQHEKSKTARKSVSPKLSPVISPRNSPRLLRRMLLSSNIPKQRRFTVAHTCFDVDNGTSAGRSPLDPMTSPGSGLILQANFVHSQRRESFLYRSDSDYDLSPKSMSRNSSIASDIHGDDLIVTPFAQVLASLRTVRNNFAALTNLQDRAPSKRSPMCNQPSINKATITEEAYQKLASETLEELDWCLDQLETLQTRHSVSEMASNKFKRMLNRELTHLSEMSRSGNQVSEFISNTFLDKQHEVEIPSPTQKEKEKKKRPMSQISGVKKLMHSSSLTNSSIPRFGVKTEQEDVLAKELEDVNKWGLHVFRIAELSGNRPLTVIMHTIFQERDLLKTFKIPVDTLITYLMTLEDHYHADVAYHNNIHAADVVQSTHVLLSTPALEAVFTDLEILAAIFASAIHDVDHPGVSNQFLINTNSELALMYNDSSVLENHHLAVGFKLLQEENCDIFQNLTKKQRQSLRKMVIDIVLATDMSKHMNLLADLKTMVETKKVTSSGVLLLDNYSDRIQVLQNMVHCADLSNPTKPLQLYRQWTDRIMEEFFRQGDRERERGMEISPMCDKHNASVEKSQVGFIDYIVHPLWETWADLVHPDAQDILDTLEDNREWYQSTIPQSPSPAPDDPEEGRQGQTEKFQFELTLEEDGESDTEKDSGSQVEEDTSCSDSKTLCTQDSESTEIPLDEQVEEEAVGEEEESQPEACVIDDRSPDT

## CN1CCC(c2nc3ccc(C(=O)NC4CCCC4)cc3s2)CC1 [Example 151, N-cyclopentyl-2-(1-methylpiperidin-4-yl)benzo[d]thiazole-6-carboxamide]
[1]
  activity at 10 µM: 10%
[2]
  cAMP level (% of PGE2-stimulated) after incubation with 10 μM test compound: 54%

## CCN1CCN(c2nc3cc(C)c(C(=O)N[C@H]4CCOc5ccccc54)cc3s2)CC1 [Example 216, (S)-N-(chroman-4-yl)-2-(4-ethylpiperazin-1-yl)-5-methylbenzo[d]thiazole-6-carboxamide]
[3]
  activation at 30 µM: 88%
[4]
  % increase in PDE4B2 activity at 30 μM*: −2%
[1]
  activity at 10 µM: -5%

## O=C(NC1CCC(F)(F)CC1)c1ccc2nc(N3CC4CCC(C3)N4)sc2c1 [Example 245, 2-(3,8-diazabicyclo[3.2.1]octan-3-yl)-N-(4,4-difluorocyclohexyl)-benzo[d]thiazole-6-carboxamide]
[5]
  % Cyst area after incubation with 1 μM test compound: 4%

## O=C(NC1CCC(F)(F)CC1)c1ccc2nc(N3CC4CCC(C3)N4CCO)sc2c1 [Example 247, N-(4,4-difluorocyclohexyl)-2-(8-(2-hydroxyethyl)-3,8-diazabicyclo[3.2.1]octan-3-yl)benzo[d]thiazole-6-carboxamide]
[5]
  % Cyst area after incubation with 1 μM test compound: 1%

## CN1CCN(c2nc3ccc(C(=O)NC4CCCC4)cc3s2)CC12CC2 [Example 260, N-cyclopentyl-2-(4-methyl-4,7-diazaspiro[2.5]octan-7-yl)benzo[d]thiazole-6-carboxamide]
[5]
  % Cyst area after incubation with 1 μM test compound: 11%

## CCN1CC2CCC(C1)N2c1nc2ccc(S(=O)(=O)NC3CCC(F)(F)CC3)cc2s1 [Example 290, N-(4,4-difluorocyclohexyl)-2-(3-ethyl-3,8-diazabicyclo[3.2.1]octan-8-yl)benzo[d]thiazole-6-sulfonamide]
[3]
  activation at 30 µM: 47%
[4]
  % increase in PDE4B2 activity at 30 μM*: 11%
[1]
  activity at 10 µM: 16%

## COc1c(C(=O)NC2CCCC2)ccc2nc(N3C4CCC3CNC4)sc12 [Example 236, 2-(3,8-diazabicyclo[3.2.1]octan-8-yl)-N-cyclopentyl-7-methoxybenzo[d]thiazole-6-carboxamide]
[5]
  % Cyst area after incubation with 1 μM test compound: 20%

## O=C(NC1CCC(F)(F)CC1)c1ccc2nc(N3C4CCC3CNC4)sc2c1 [Example 240, 2-(3,8-diazabicyclo[3.2.1]octan-8-yl)-N-(4,4-difluorocyclohexyl)-benzo[d]thiazole-6-carboxamide]
[1]
  activity at 10 µM: 5%
[2]
  cAMP level (% of PGE2-stimulated) after incubation with 10 μM test compound: 41%

## CC(C)NC(=O)c1cc(C#N)c2nc(N3C4CCC3CNC4)sc2c1 [Example 238, 2-(3,8-diazabicyclo[3.2.1]octan-8-yl)-4-cyano-N-isopropylbenzo[d]thiazole-6-carboxamide]
[5]
  % Cyst area after incubation with 1 μM test compound: 24%

## CCN1CCN(c2nc3c(C)cc(C(=O)N[C@H]4CCOc5ccccc54)cc3s2)CC1 [Example 212, (S)-N-(chroman-4-yl)-2-(4-ethylpiperazin-1-yl)-4-methylbenzo[d]thiazole-6-carboxamide]
[3]
  activation at 30 µM: 30%
[4]
  % increase in PDE4B2 activity at 30 μM*: −3%

## O=C(N[C@H]1CCOc2ccccc21)c1ccc2nc(N3CCNCC3)sc2c1 [Example 83, (S)-N-(chroman-4-yl)-2-(piperazin-1-yl)benzo[d]thiazole-6-carboxamide hydrochloride]
[1]
  activity at 10 µM: 6%
[5]
  % Cyst area after incubation with 1 μM test compound: −1%

## O=C(NC1CCC(F)(F)CC1)c1ccc2nc(C3CCN(CCO)CC3)sc2c1 [Example 174, N-(4,4-difluorocyclohexyl)-2-(1-(2-hydroxyethyl)piperidin-4-yl)benzo[d]thiazole-6-carboxamide]
[2]
  cAMP level (% of PGE2-stimulated) after incubation with 10 μM test compound: 27%

## CCN1CCN(c2nc3ccc(C(=O)N[C@H]4CCOc5ccccc54)c(C)c3s2)CC1 [Example 220, (S)-N-(chroman-4-yl)-2-(4-ethylpiperazin-1-yl)-7-methylbenzo[d]thiazole-6-carboxamide]
[3]
  activation at 30 µM: 36%
[4]
  % increase in PDE4B2 activity at 30 μM*: 0%
